In US4621057A (Noda Institute for Scientific Research, priority 1983, dated 1986):
Counter-ions that a name gives are not always drawn. Each block holds one compound with its values, some of them ahead of it.

Experiments:
Assay type in all cases: biochemical, Pseudomonas sp. No. 15-1
[1] = system: N-acetylhexosamine oxidase; assay: Activity inhibition by metalic ion or inhibitor; conditions: for inhibition of enzyme activity (in words): 1.8mM metalic ion
[2] = system: N-acetylhexosamine oxidase; assay: Action and specificity for substrate; conditions: in the presence of oxygen
Excerpt: As shown in the following reaction formula, the present enzyme oxidizes N-acetylhexosamine in the presence of oxygen to form N-acetylhexosaminic acid and hydrogen peroxide.

[3] = system: N-acetylhexosamine oxidase; assay: Activity stabilization by bovine serum albumin in heat treatment; conditions: 1 mg/ml in potassium phosphate buffer solution of pH 6.8; 10 minutes heat treatment
Method: Further, in 10 minutes heat treatment at 45° C., the present enzyme is stable between pH 3 and pH 9 and loses its activity rapidly at a more acidic region and slowly at a more alkaline region. In this experiment, the hydrogen peroxide method was adopted, and the residual activity of the present enzyme subjected to 10 minutes heat treatment in a potassium phosphate buffer solution of pH 6.8 at each temperature was compared with the residual activity of the same enzyme subjected to the same treatment in a potassium phosphate buffer solution of pH 6.8 containing 1 mg/ml of bovine serum albumin.

[4] = 1.8mM metalic ion or inhibitor, tris-hydrochloric acid buffer solution of pH 7.5
[5] = tris-hydrochloric acid buffer solution of pH 7.5

Compound: O=[N+]([O-])[O-].[Ag+] [AgNO3]
Residual activity (%) ([1]; 1.8mM, Phosphate buffer solution): 5%

Compound: [Ca+2].[Cl-].[Cl-] [CaCl2]
Residual activity (%) [1, 4]: 91%

Compound: O=S(=O)([O-])[O-].[Cd+2] [CdSO4]
Residual activity (%) [1, 4]: 52%
inhibition of enzyme activity (in words) [1, 5]: considerably

Compound: O=S(=O)([O-])[O-].[Co+2] [CoSO4]
Residual activity (%) [1, 4]: 75%

Compound: O=S(=O)([O-])[O-].[Cu+2] [CuSO4]
Residual activity (%) [1, 4]: 74%

Compound: O=C(O)CN(CCN(CC(=O)O)CC(=O)O)CC(=O)O [EDTA, Etheylenediaminetetracetic acid sodium salt]
Residual activity (%) ([1]; pH 7.5): 87%

Compound: O=S(=O)([O-])[O-].[Fe+2] [FeSO4]
Residual activity (%) [1, 4]: 15%
inhibition of enzyme activity (in words) [1, 5]: inhibited greatly

Compound: NC(=O)CI [ICH2 CONH2]
Residual activity (%) [1, 4]: 90%

Compound: O=S(=O)([O-])[O-].[Mg+2] [MgSO4]
Residual activity (%) [1, 4]: 86%

Compound: O=S(=O)([O-])[O-].[Mn+2] [MnSO4]
Residual activity (%) [1, 4]: 84%

Compound: CC(=O)N[C@H]1[C@H]([C@H](O)[C@H](O)CO)OC(O)(C(=O)O)C[C@@H]1O (stereo partly shown) [N-acetylneuraminic acid]
action of the enzyme on the substrate [2]: hardly acts or does not all act

Compound: O=S(=O)([O-])[O-].[Ni+2] [NiSO4]
Residual activity (%) [1, 4]: 64%
inhibition of enzyme activity (in words) [1, 5]: considerably

Residual activity (%) [1, 4]: 81%
Compound: c1cnc2c(c1)ccc1cccnc12 [O'--Phenanthroline]

Compound: O=C(O)c1cc[c]([Hg][Cl])cc1 [PCMB, pChloromercurybenzoate]
Residual activity (%) [1, 4]: 67%

Compound: CC(=O)[O-].CC(=O)[O-].[Pb+2] [Pb(CH3 COO)2]
Residual activity (%) [1, 4]: 42%
inhibition of enzyme activity (in words) [1, 5]: considerably

Compound: CCCCCCCCCCCCOS(=O)(=O)[O-].[Na+] [SDS, Sodium dodecylsulfate]
Residual activity (%) [1, 4]: 87%

Compound: O=S(=O)([O-])[O-].[Zn+2] [ZnSO4]
Residual activity (%) [1, 4]: 2%
inhibition of enzyme activity (in words) [1, 5]: inhibited greatly

Compound: HgCl2
Residual activity (%) [1, 4]: 17%
inhibition of enzyme activity (in words) [1, 5]: inhibited greatly

Compound: bovine serum albumin
effect of addition on enzyme activity [3]: stabilized and moreover slightly enhanced
